Here are results for one compound from patent US20220324862A1, “PYRIDOPYRIMIDINONE COMPOUNDS” (Acerand Therapeutics (USA) Limited, priority 2021, published 2022).

The test system of assay [1] is cellular pERK in NCI-H1975 cells (EGFR/L858R-T790M). As to the kind of experiment: pERK Potency Assay. It counts as cell-based. To be noted: Homo sapiens, 1 hour incubation, Western blot, read-out: IC50 value, cellular pERK level. The text has this: The purpose of this assay is to measure the ability of test compounds to inhibit SOS1 function in cells. SOS1 activates RAS proteins by catalyzing the conversion of RAS-GDP to RAS-GTP in response to receptor tyrosine kinase activation. Activation of RAS induces a sequence of cellular signaling events that results in increased phosphorylation of ERK at Threonine 202 and Tyrosine 204 (pERK). The procedure described below measured the level of cellular pERK in response to test compounds in NCI-H1975 cells (EGFR/L858R-T790M).
NCI-H1975 cells were grown and maintained using media and procedures recommended by the ATCC. On the day prior to compound addition, cells were plated in 24-well cell culture plates (0.9 ml/well) and grown overnight in a 37° C., 5% CO2 incubator. Test compounds were prepared with 3-fold serial dilutions in DMSO, with a top concentration of 10 mM. On the day of the assay, 100 uL of each test compound diluted at 1:100 in media was added to each well of cell culture plate with final concentrations of the compound spanning 0.5 nM to 10 uM. After the compound was added, the cells were incubated for 1 hour at 37° C., 5% CO2. Following incubation, culture medium was removed, and the cells were washed once with phosphate buffered saline and lysed with lysis buffer (20 mM Tris-HCl, pH 7.5, 150 mM NaCl, 1 mM EDTA, 1 mM EGTA, 0.8% NP-40 plus 2× protease and phosphatase inhibitors). Cellular pERK level was determined using the Western blot analysis and quantified with Liqor software. Signal from Western blot was plotted and IC50 values were determined by fitting a 4-parameter sigmoidal concentration response model.
In general terms: Immunoblotting shows a protein as a band on a membrane.

Another assay deals with NCI-H1975 cells. The assay is described as follows: 3D cell proliferation assay. Format: cell-based. To be noted: Homo sapiens, ultra low attachment plate, 96 hours, 3D CTG. The method, then: This assay supports the molecular mode of action of compounds. Low IC50 values are indicative of high potency of the SOS1 inhibition. […] This supports the molecular mode of action of the SOS1 inhibitors as selectively targeting cancer cells dependent on receptor tyrosine kinase-RAS/SOS1-family protein function. Cell proliferation assays were performed in three-dimensional (3D) anchorage-independent conditions in 96 well ultra-low attachment plate with the following human cell lines:
NCI-H1975: human non-small cell lung cancer (NSCLC) with wild type KRAS and EGFR L858R/T790M mutation;
Cell lines were purchased from the American Type Culture Collection (ATCC), NCI, or European Collection of Authenticated Cell Cultures (ECACC). All cell lines were maintained in RPMI-1640 or DMEM with 10% heat inactivated fetal bovine serum.
Cells growing in log phase were detached with Gibco™ TrypLE™ Express Enzyme and plated in 96 well ultra low attachment plate at 15000 to 20000 cells/well in 100 μl of media. After overnight incubation at 37° C. and 5% CO2, the cells were treated with compounds (50 μL/well) at the final concentrations spanning 1 nM to 20 μM. Cells were incubated at 37° C., 5% CO2 and 95% humidity incubator for 96 hours. At the end of incubation, a 3D CTG reagent from Promega was added to each well according to vendors recommendation and mixed for 10 minutes in dark. The luminescence signals were determined using Biotek plate reader. The data was fitted using a sigmoidal curve analysis program (GraphPAD Prism) with variable hill slope.

pIC50: −log10 of the molar value. Where only a bound is given, the exact number is not on record here.

Usually pIC50 stands for the negative decadic logarithm of the IC50, by convention in mol/L. For the compound `C#C[C@@H](Nc1nc(C)nc2cc(=O)n(C3(C)CCN(C(C)=O)CC3)cc12)c1cccc(C(F)(F)F)c1C` [Compound 33, (R)-6-(1-acetyl-4-methylpiperidin-4-yl)-2-methyl-4-((1-(2-methyl-3-(trifluoromethyl)phenyl)prop-2-yn-1-yl)amino)pyrido[4,3-d]pyrimidin-7(6H)-one], the pIC50 (in assay [1]; in the assay with NCI-H1975 cells) was more than 7.00 in each case.
